Results reported in patent US20090181408A1 (AMANO ENZYME INC., priority 2006, published 2009).
“And” between values parts separate entries of the source, which are not always exact repeats. Equal entries are not always repeated.

Legend:
[1] = system: FAD-GDH derived from Aspergillus oryzae IAM2706; test: Substrate specificity 2, relative activity (PMS/DCIP); format: biochemical; conditions: activity with D-glucose assumed 100%; dialyzed culture filtrate; MOPS pH 7.0, 25° C.
Procedure: (§1) 10 mL of each culture filtrate derived from Aspergillus oryzae BB-56, IAM2603, IAM2628, IAM2683, IAM2736, IAM2706, or NBRC30113 was placed in a dialysis membrane 36 and dialyzed in 10 mM KH2PO4—NaOH at 4° C. over night.
(§2) By measuring the decrease of DCIP by the reduction reaction in the absorbance at 600 nm, the FAD-GDH activity was measured. The activity with respect to each substrate was calculated when the activity with respect to D-glucose as a substrate was assumed to be 100% (Table 4). From the results, the substrate specificities of FAD-GDH derived from Aspergillus oryzae BB-56, IAM2603, IAM2628, IAM2683, IAM2736, IAM2706, or NBRC30113 are the same as each other.

[2] = system: FAD-GDH derived from Aspergillus oryzae IAM2603; test: as above; format: biochemical; conditions: activity with D-glucose assumed 100%; dialyzed culture filtrate; MOPS pH 7.0, 25° C.
Procedure: as §1, §2

[3] = system: FAD-GDH derived from Aspergillus oryzae IAM2736; test: as above; format: biochemical; conditions: activity with D-glucose assumed 100%; dialyzed culture filtrate; MOPS pH 7.0, 25° C.
Procedure: as §1, §2

[4] = system: FAD-GDH derived from Aspergillus oryzae NBRC30113; test: as above; format: biochemical; conditions: activity with D-glucose assumed 100%; dialyzed culture filtrate; MOPS pH 7.0, 25° C.
Procedure: as §1, §2

[5] = system: FAD-GDH derived from Aspergillus oryzae IAM2628; test: as above; format: biochemical; conditions: activity with D-glucose assumed 100%; dialyzed culture filtrate; MOPS pH 7.0, 25° C.
Procedure: as §1, §2

[6] = system: FAD-GDH derived from Aspergillus oryzae IAM2683; test: as above; format: biochemical; conditions: activity with D-glucose assumed 100%; dialyzed culture filtrate; MOPS pH 7.0, 25° C.
Procedure: as §1, §2

[7] = system: FAD-GDH derived from Aspergillus oryzae BB-56; test: as above; format: biochemical; conditions: activity with D-glucose assumed 100%; dialyzed culture filtrate; MOPS pH 7.0, 25° C.
Procedure: as §1, §2

[8] = target: purified FAD-GDH (Aspergillus oryzae, UniProt A0A1S9DW10); test: Substrate specificity 1 of purified FAD-GDH (PMS/NTB); format: biochemical, Aspergillus oryzae BB-56; conditions: reaction rate with respect to D-glucose assumed 100%, PIPES-NaOH pH 6.5, 37° C.
Procedure: Thus, the enzymatic activity was measured. The relative activity with respect to each substrate was calculated when the reaction rate with respect to D-glucose was assumed to be 100% (Table 3).

[9] = system: purified FAD-GDH; test: Inhibition test with 1,10-phenanthroline (DCIP/1-methoxy PMS); format: biochemical, Aspergillus oryzae
Procedure: The enzymatic activities were measured in the control group and the test group (group in which 1,10-phenanthroline was added) and both activities were compared with each other. Thereby, the inhibition effect of 1,10-phenanthroline on purified FAD-GDH was examined.
Subsequently, 0.05 mL of enzyme solution was added, the change of absorbance in 600 nm of DCIP (ΔABS/min) was measured, and the enzymatic activity was calculated by the following calculation formula.
In the above-mentioned measurement method, the enzymatic activities when 1,10-phenanthroline was added so that the final concentration became 1 mM, 5 mM, 10 mM, 25 mM, and 50 mM were measured, respectively.

[10] = phosphate buffer pH 7.0, 37° C.; for GO activity: 500 nm
Procedure: D-glucose+O2→D-glucono-δ-lactone+H2O2 Reaction 1
H2O2+4-aminoantipyrine+phenol→quinonimine dye+4H2O Reaction 2
H2O2 produced with GO in the reaction 1 is used in a production reaction of quinonimine dye with peroxidase in the reaction 2. By measuring the quinonimine dye in the absorbance in 500 nm, the GO activity was measured. The amount of enzyme oxidizing 1 μmole of D-glucose for one minute in the reaction condition at 37° C. is defined as one unit of the GO activity.
2.0 mL of phenol solution (0.1M phosphate buffer (pH 7.0) containing 0.152% phenol and 0.152% Triton X-100), 0.5 mL of 0.555 mol/L D-glucose solution, 0.5 mL of 25 U/mL peroxidase (AMANO ENZYME INC) solution, and 0.1 mL of 4 mg/mL 4-aminoantipyrine solution were mixed with each other and kept at 37° C. for 5 minutes. […] Two minutes and 5 minutes after the reaction was started, the absorbance in 500 nm was measured. Furthermore, as enzyme blank, 0.1M phosphate buffer (pH 7.0) was added instead of an enzyme solution, similarly the absorbance was measured. The GO activity was calculated from the following calculation formula.
In the formula, “3” denotes a reaction time, “12.88” denotes molecular absorption constant (mM) of the quinonimine dye, “1/2” denotes a coefficient based on the fact that 1 mole of quinonimine dye is produced from 2 mole of H2O2, “3.2” denotes a final liquid amount of the reaction solution, “0.1” is sample amount (mL), and “Dm” is dilution ratio, respectively.

[11] = Measurement of isoelectric point (glycerol density gradient electrophoresis); format: physicochemical
Procedure: This dialysis sample was subjected to glycerol density gradient electrophoresis. A carrier ampholyte having a column volume of 110 mL (Pharmalyte™ 3-10 for IEF (Amersham Biosciences AB), average final concentration of 1%) was used to allow an electric current to pass at 5° C. at a constant voltage of 400V for 48 hours. After passing current, samples were recovered at the flow rate of about 2 mL/min (one fraction was made to be 1.5 mL). When pH and FAD-GDH activity of each fraction were measured, pI of FAD-GDH derived from Aspergillus oryzae BB-56 was 6.4 (FIG. 9).

[12] = Investigation of temperature for stability; format: physicochemical
Procedure: Herein, the optimum pH is a value measured in, for example, Mcllvaine buffer as mentioned below in the Examples. The optimum temperature is also a value measured in, for example, PIPES-NaOH buffer (pH 6.5). Furthermore, the enzyme maintains 80% or more of the activity when it is treated under a certain pH condition at 37° C. for 30 minutes, the enzyme can be “stable” in the pH condition. […] The Km value and the isoelectric point can be measured and evaluated by the method described below in the Examples (columns 8 and 6).
Purified FAD-GDH was diluted to 1 U/mL with 50 mM PIPES-NaOH buffer (pH 6.5) containing 1 mM calcium chloride, 0.1% (w/v) Triton X-100, and 0.1% (w/v) bovine serum albumin and treated at each designated temperature (5, 30, 40, 50, or 60° C.) for 20 minutes. Each treated solution was cooled in ice and then it was diluted with 50 mM PIPES-NaOH buffer (pH 6.5) containing 1 mM calcium chloride, 0.1% (w/v) Triton X-100, 0.1% (w/v) bovine serum albumin, and the FAD-GDH activity was measured in the above-mentioned method 1. As a control, FAD-GDH of the not thermally treated enzyme was measured. […]

[13] = PMS/NTB, pH 6.5, 37° C.
Procedure: 2.55 mL of 50 mM PIPES-NaOH buffer (pH 6.5) containing 0.22% (w/v) Triton X-100, 0.1 mL of 1M D-glucose solution, 0.2 mL of 3 mM PMS solution, and 0.1 mL of 6.6 mM NTB solution were mixed with each other and kept at 37° C. for 5 minutes. […] Diformazan produced by the enzyme reaction was measured in the absorbance in 570 nm and the amount Diformazan produced per minute was measured. Thus, the enzymatic activity was measured.

[14] = Investigation of pH for stability; format: physicochemical; conditions: pH 3.0 to pH 7.0, 37° C., 30 minutes
Procedure: Herein, the optimum pH is a value measured in, for example, Mcllvaine buffer as mentioned below in the Examples. The optimum temperature is also a value measured in, for example, PIPES-NaOH buffer (pH 6.5). Furthermore, the enzyme maintains 80% or more of the activity when it is treated under a certain pH condition at 37° C. for 30 minutes, the enzyme can be “stable” in the pH condition. Similarly, when the activity of the enzyme is not substantially deteriorated (that is to say, about 100% of the activity is maintained) after it is treated under a certain temperature condition in a suitable buffer solution (for example, PIPES-NaOH buffer, pH 6.5) for 20 minutes, the enzyme can be “stable” in the temperature condition. The Km value and the isoelectric point can be measured and evaluated by the method described below in the Examples (columns 8 and 6).
Each treatment solution was appropriately diluted with 0.2M KH2PO4—NaOH buffer (pH 6.5) and the FAD-GDH activity was measured by the above-mentioned method 1. As a control, the activity of purified FAD-GDH, which was diluted with 0.1M KH2PO4—NaOH buffer (pH 6.5) and stored in ice, was also measured. As a result, FAD-GDH maintains 80% or more of the activity at least in the range from pH 3.0 to pH 7.0, showing that FAD-GDH is stable in the range from pH 3.0 to pH 7.0 (FIG. 7).

[15] = Investigation of optimum temperature; format: biochemical; conditions: PIPES-NaOH buffer pH 6.5, 30-65° C.
Procedure: Thus, the enzymatic activity was measured. […] (FIG. 6).

[16] = substrate: OC[C@H]1OC(O)[C@H](O)[C@@H](O)[C@@H]1O; test: Measurement of Michaelis-Menten Km constant (Lineweaver-Burk plot); format: biochemical, Aspergillus oryzae BB-56; conditions: other: purified FAD-GDH, PIPES-NaOH pH 6.5, 37° C.

| Molecule | relative activity, IAM2706 [1] [%] | relative activity, IAM2603 [2] [%] | relative activity, IAM2736 [3] [%] | relative activity, NBRC30113 [4] [%] | relative activity, IAM2628 [5] [%] | relative activity, IAM2683 [6] [%] | relative activity, BB-56 [7] [%] | relative activity [8] [%] | other results |
| --- | --- | --- | --- | --- | --- | --- | --- | --- | --- |
| OC[C@H]1O[C@H](O[C@H]2[C@H](O)[C@@H](O)C(O)O[C@@H]2CO)[C@H](O)[C@@H](O)[C@@H]1O (mixture of isomers) [maltose] | 0 | 0 | 0 | 0 | 0 | 0 | 0 | 0.582 | – |
| c1cnc2c(c1)ccc1cccnc12 [1,10-phenanthroline] | – | – | – | – | – | – | – | – | Inhibition effect ([9]; final concentration of 1,10-phenanthroline 5 mM): 21%; Inhibition effect ([9]; final concentration of 1,10-phenanthroline 10 mM): 38% |
| O=CC[C@@H](O)[C@H](O)[C@H](O)CO [2-deoxyglucose] | 33.9 | 29.0 | 31.3 | 35.3 | 34.2 | 32.7 | 35.1 | – | – |
| O=C(CO)[C@@H](O)[C@H](O)[C@H](O)CO [fructose] | 0 | 0 | 0 | 0 | 1.40 | 0 | 0 | – | – |
| O=C[C@H](O)[C@@H](O)[C@@H](O)[C@H](O)CO [galactose] | – | – | – | – | – | – | – | 0.349 | – |
| O=C[C@H](O)[C@@H](O)[C@H](O)CO [xylose] | 16.1 | 16.1 | 14.6 | 17.6 | 16.4 | 17.3 | 17.6 | 22.7 | – |
| flavin adenine dinucleotide-binding glucose dehydrogenase | – | – | – | – | – | – | – | – | GO activity (in words) [10]: does not substantially have the GO activity; GO activity [10]: 0.0025 U/mL; isoelectric point (pI) ([11]; listed as FAD-GDH): about 6.4; isoelectric point (pI) ([11]; listed as FAD-GDH derived from Aspergillus oryzae BB-56): 6.4; activity maintained after thermal treatment ([12]; 40° C. or less, 20 minutes, pH 6.5): ~100%; temperature for stability ([12]; treated 20 minutes in PIPES-NaOH pH 6.5, stable = about 100% of activity maintained): ≤ 40 °C; GDH activity [13]: 119 U/mL; activity maintained after pH treatment [14]: ≥ 80%; optimum temperature [15]: about 60 °C |
| glucose oxidase [GO] | – | – | – | – | – | – | – | – | GO activity [10]: 67.8 U/mL; GDH activity [13]: 8.86 U/mL; GDH activity (in words) [13]: also has the GDH activity |
| maltohexaose | – | – | – | – | – | – | – | 0.479 | – |
| maltopentaose | – | – | – | – | – | – | – | 4.55 | – |
| maltotriose | – | – | – | – | – | – | – | 0.239 | – |
| purified FAD-GDH (Aspergillus oryzae) (protein) SPAGRAKNTTTYDYIVVGGGTSGLVVANRLSENPDVSVLLLEAGASVFNNPDVTNANGYGLAFGSAIDWQYQSINQSYAGGKQQVLRAGKALGGTSTINGMAYTRAEDVQIDVWQKLGNEGWTWKDLLPYYLKSENLTAPTSSQVAAGAAYNPAVNGKEGPLKVGWSGSLASGNLSVALNRTFQAAGVPWVEDVNGGKMRGFNIYPSTLDVDLNVREDAARAYYFPYDDRKNLHLLENTTANRLFWKNGSAEEAIADGVEITSADGKVTRVHAKKEVIISAGALRSPLILELSGVGNPTILKKNNITPRVDLPTVGENLQDQFNNGMAGEGYGVLAGASTVTYPSISDVFGNETDSIVASLRSQLSDYAAATVKVSNGHMKQEDLERLYQLQFDLIVKDKVPIAEILFHPGGGNAVSSEFWGLLPFARGNIHISSNDPTAPAAINPNYFMFEWDGKSQAGIAKYIRKILRSAPLNKLIAKETKPGLSEIPATAADEKWVEWLKANYRSNFHPVGTAAMMPRSIGGVVDNRLRVYGTSNVRVVDASVLPFQVCGHLVSTLYAVAERASDLIKEDAKSA | – | – | – | – | – | – | – | – | Km [16]: 8.2 mM and 8 mM |
